Measured values as given in ChEMBL document CHEMBL4024706 (Eur J Med Chem, 2017).

Tests used:
[1] = test system: U-937; test: Growth inhibition of human U937 cells; format: functional; conditions: Homo sapiens, U-937
[2] = test system: Tyrosine-protein kinase ABL1 (Homo sapiens), P00519 [H396P]; test: Inhibition of human phosphorylated ABL1 H396P mutant (S229 to K512 residues) expressed in mammalian expression system assessed as residual activity at 1 uM by Kinomescan method relative to control
[3] = biological target: Tyrosine-protein kinase ABL1 (Homo sapiens) (UniProt P00519); test: Inhibition of wild-type human non-phosphorylated ABL1 (S229 to K512 residues) expressed in mammalian expression system assessed as residual activity at 1 uM by Kinomescan method relative to control
[4] = biological target: Cyclin-dependent kinase 2 (Homo sapiens) (UniProt P24941); test: Inhibition of wild-type human full length CDK2 (M1 to L298 residues) expressed in bacterial expression system assessed as residual activity at 1 uM by Kinomescan method relative to control
[5] = biological target: Cyclin-dependent kinase 7 (Homo sapiens) (UniProt P50613); test: Inhibition of wild-type human full length CDK7 (M1 to L344 residues) expressed in mammalian expression system assessed as residual activity at 1 uM by Kinomescan method relative to control
[6] = biological target: Cyclin-dependent kinase-like 1 (Homo sapiens) (UniProt Q00532); test: Inhibition of wild-type human full length CDKL1 (M1 to I358 residues) expressed in mammalian expression system assessed as residual activity at 1 uM by Kinomescan method relative to control
[7] = biological target: Death-associated protein kinase 1 (Homo sapiens) (UniProt P53355); test: Inhibition of wild-type human partial length DAPK1 (M1 to F296 residues) expressed in bacterial expression system assessed as residual activity at 1 uM by Kinomescan method relative to control
[8] = biological target: Myotonin-protein kinase (Homo sapiens) (UniProt Q09013); test: Inhibition of wild-type human partial length DMPK (V47 to V415 residues) expressed in bacterial expression system assessed as residual activity at 1 uM by Kinomescan method relative to control
[9] = biological target: Serine/threonine-protein kinase 17A (Homo sapiens) (UniProt Q9UEE5); test: Inhibition of wild-type human partial length DRAK1 (R32 to E363 residues) expressed in bacterial expression system assessed as residual activity at 1 uM by Kinomescan method relative to control
[10] = biological target: Serine/threonine-protein kinase 17B (Homo sapiens) (UniProt O94768); test: Inhibition of wild-type human full length DRAK2 (M1 to C372 residues) expressed in bacterial expression system assessed as residual activity at 1 uM by Kinomescan method relative to control
[11] = biological target: Ephrin type-B receptor 2 (Homo sapiens) (UniProt P29323); test: Inhibition of wild-type human partial length EPHB2 (I597 to L902 residues) expressed in bacterial expression system assessed as residual activity at 1 uM by Kinomescan method relative to control
[12] = biological target: Fibroblast growth factor receptor 2 (Homo sapiens) (UniProt P21802); test: Inhibition of wild-type human partial length FGFR2 (D457 to E769 residues) expressed in bacterial expression system assessed as residual activity at 1 uM by Kinomescan method relative to control
[13] = biological target: Serine/threonine-protein kinase LATS2 (Homo sapiens) (UniProt Q9NRM7); test: Inhibition of wild-type human partial length LATS2 (Q641 to V1088 residues) expressed in mammalian expression system assessed as residual activity at 1 uM by Kinomescan method relative to control
[14] = biological target: Mitogen-activated protein kinase kinase kinase 2 (Homo sapiens) (UniProt Q9Y2U5); test: Inhibition of wild-type human partial length MAP3K2 (S315 to H619 residues) expressed in mammalian expression system assessed as residual activity at 1 uM by Kinomescan method relative to control
[15] = biological target: Hepatocyte growth factor receptor (Homo sapiens) (UniProt P08581); test: Inhibition of wild-type human partial length MET (D1010 to S1367 residues) expressed in bacterial expression system assessed as residual activity at 1 uM by Kinomescan method relative to control
[16] = biological target: MAP kinase-interacting serine/threonine-protein kinase 2 (Homo sapiens) (UniProt Q9HBH9); test: Inhibition of wild-type human partial length MKNK2 (G63 to S388 residues) expressed in mammalian expression system assessed as residual activity at 1 uM by Kinomescan method relative to control
[17] = biological target: Mitogen-activated protein kinase kinase kinase 11 (Homo sapiens) (UniProt Q16584); test: Inhibition of wild-type human partial length MLK3 (I77 to W399 residues) expressed in bacterial expression system assessed as residual activity at 1 uM by Kinomescan method relative to control
[18] = biological target: Myosin light chain kinase 2, skeletal/cardiac muscle (Homo sapiens) (UniProt Q9H1R3); test: Inhibition of wild-type human partial length MYLK2 (D258 to K570 residues) expressed in bacterial expression system assessed as residual activity at 1 uM by Kinomescan method relative to control
[19] = biological target: Cyclin-dependent kinase 18 (Homo sapiens) (UniProt Q07002); test: Inhibition of wild-type human full length PCTK3 (M3 to F474 residues) expressed in bacterial expression system assessed as residual activity at 1 uM by Kinomescan method relative to control
[20] = biological target: Cyclin-dependent kinase 15 (Homo sapiens) (UniProt Q96Q40); test: Inhibition of wild-type human full length PFTAIRE2 (M1 to W384 residues) expressed in bacterial expression system assessed as residual activity at 1 uM by Kinomescan method relative to control
[21] = test system: Phosphatidylinositol 4,5-bisphosphate 3-kinase catalytic subunit alpha isoform (Homo sapiens), P42336 [E545A]; test: Inhibition of human partial length PIK3CA E545A mutant (R108 to N1068 residues) expressed in mammalian expression system assessed as residual activity at 1 uM by Kinomescan method relative to control
[22] = biological target: Protein kinase C epsilon type (Homo sapiens) (UniProt Q02156); test: Inhibition of wild-type human partial length PRKCE (A378 to P737 residues) expressed in mammalian expression system assessed as residual activity at 1 uM by Kinomescan method relative to control
[23] = biological target: Dual serine/threonine and tyrosine protein kinase (Homo sapiens) (UniProt Q6XUX3); test: Inhibition of wild-type human full length RIPK5 (M1 to T929 residues) expressed in mammalian expression system assessed as residual activity at 1 uM by Kinomescan method relative to control
[24] = biological target: Rho-associated protein kinase 1 (Homo sapiens) (UniProt Q13464); test: Inhibition of wild-type human partial length ROCK1 (M1 to R415 residues) expressed in mammalian expression system assessed as residual activity at 1 uM by Kinomescan method relative to control
[25] = biological target: Serine/threonine-protein kinase Sgk2 (Homo sapiens) (UniProt Q9HBY8); test: Inhibition of wild-type human partial length SGK2 (L54 to C427 residues) expressed in mammalian expression system assessed as residual activity at 1 uM by Kinomescan method relative to control
[26] = biological target: Serine/threonine-protein kinase 32A (Homo sapiens) (UniProt Q8WU08); test: Inhibition of wild-type human full length YANK1 (M1 to L396 residues) expressed in mammalian expression system assessed as residual activity at 1 uM by Kinomescan method relative to control

Cyclin-dependent kinase 7 (Homo sapiens), sequence (P50613 whole entry, the tested form may be a part): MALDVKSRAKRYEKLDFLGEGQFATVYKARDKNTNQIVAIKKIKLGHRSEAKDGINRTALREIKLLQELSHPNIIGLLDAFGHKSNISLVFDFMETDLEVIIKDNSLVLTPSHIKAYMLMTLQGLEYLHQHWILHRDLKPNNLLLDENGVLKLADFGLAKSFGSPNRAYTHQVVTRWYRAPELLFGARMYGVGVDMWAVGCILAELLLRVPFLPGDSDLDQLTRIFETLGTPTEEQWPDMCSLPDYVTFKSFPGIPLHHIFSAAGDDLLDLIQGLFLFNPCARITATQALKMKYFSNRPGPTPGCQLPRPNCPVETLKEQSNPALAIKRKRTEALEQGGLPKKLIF
Serine/threonine-protein kinase 17A (Homo sapiens), sequence (Q9UEE5 whole entry, the tested form may be a part): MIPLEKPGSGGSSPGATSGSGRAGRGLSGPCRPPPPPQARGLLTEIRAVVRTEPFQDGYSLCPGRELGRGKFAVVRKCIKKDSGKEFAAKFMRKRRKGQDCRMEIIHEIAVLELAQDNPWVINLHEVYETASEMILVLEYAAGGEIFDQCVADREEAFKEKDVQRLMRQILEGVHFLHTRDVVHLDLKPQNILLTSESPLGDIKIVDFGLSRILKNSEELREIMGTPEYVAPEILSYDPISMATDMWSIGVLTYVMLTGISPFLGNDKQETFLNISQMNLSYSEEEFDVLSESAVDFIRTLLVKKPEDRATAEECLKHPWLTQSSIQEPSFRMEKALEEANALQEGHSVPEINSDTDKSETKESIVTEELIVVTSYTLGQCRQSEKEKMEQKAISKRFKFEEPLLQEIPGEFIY
Death-associated protein kinase 1 (Homo sapiens), sequence (P53355 whole entry, looked up, the tested form may be a part): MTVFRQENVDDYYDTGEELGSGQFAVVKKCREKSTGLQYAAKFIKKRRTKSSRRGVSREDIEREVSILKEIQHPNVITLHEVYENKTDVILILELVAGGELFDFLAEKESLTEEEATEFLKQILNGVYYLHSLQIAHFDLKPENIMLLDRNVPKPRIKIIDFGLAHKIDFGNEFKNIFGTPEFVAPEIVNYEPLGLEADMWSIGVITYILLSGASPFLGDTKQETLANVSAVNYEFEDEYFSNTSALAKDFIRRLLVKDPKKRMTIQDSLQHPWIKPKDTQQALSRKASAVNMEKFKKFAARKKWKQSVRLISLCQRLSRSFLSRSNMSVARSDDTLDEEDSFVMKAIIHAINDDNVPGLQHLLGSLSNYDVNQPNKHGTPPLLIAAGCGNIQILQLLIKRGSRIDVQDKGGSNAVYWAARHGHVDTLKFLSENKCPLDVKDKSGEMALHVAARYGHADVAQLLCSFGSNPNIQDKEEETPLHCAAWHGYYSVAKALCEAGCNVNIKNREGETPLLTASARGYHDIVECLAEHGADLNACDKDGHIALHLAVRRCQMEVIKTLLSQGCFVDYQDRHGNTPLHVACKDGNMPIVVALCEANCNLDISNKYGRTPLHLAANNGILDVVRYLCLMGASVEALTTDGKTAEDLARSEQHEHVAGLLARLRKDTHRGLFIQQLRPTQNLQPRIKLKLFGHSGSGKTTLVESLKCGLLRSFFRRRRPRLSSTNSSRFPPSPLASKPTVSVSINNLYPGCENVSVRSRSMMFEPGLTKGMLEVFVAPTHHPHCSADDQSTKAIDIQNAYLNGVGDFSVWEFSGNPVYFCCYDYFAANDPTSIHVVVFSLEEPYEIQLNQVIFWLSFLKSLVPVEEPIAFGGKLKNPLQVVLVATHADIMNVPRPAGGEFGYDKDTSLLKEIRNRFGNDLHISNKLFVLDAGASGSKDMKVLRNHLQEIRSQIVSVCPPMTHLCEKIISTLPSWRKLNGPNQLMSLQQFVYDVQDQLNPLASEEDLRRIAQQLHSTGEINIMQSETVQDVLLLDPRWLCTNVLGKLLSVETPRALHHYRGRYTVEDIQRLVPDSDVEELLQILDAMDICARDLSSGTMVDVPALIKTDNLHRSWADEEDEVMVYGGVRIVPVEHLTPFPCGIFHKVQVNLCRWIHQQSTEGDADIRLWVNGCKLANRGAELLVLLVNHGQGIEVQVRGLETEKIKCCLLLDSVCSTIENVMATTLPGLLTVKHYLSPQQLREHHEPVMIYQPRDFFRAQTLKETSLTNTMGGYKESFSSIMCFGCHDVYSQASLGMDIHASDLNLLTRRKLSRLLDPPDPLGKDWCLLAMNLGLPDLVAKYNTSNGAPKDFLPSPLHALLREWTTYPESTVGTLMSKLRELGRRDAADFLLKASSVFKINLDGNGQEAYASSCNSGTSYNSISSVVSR
Protein kinase C epsilon type (Homo sapiens), sequence (Q02156 whole entry, the tested form may be a part): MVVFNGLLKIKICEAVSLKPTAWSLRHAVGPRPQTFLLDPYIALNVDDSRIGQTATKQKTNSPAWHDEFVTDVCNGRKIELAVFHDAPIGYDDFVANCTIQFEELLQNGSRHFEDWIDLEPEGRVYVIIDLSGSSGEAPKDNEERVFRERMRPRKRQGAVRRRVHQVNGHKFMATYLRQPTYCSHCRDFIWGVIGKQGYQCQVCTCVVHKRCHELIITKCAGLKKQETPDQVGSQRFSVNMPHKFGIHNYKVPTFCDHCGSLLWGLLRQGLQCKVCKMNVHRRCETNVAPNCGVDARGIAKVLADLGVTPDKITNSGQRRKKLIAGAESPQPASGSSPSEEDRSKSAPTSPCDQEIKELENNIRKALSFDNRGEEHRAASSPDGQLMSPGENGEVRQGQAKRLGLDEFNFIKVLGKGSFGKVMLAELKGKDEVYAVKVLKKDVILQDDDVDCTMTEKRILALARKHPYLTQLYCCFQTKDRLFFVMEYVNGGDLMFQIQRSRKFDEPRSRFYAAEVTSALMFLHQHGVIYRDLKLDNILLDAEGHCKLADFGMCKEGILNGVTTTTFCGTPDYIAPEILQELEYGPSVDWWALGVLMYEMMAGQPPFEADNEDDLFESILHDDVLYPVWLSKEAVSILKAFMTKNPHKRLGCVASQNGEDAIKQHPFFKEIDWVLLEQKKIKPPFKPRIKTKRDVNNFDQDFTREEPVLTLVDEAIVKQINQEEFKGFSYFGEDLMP
Myosin light chain kinase 2, skeletal/cardiac muscle (Homo sapiens), sequence (Q9H1R3 whole entry, the tested form may be a part): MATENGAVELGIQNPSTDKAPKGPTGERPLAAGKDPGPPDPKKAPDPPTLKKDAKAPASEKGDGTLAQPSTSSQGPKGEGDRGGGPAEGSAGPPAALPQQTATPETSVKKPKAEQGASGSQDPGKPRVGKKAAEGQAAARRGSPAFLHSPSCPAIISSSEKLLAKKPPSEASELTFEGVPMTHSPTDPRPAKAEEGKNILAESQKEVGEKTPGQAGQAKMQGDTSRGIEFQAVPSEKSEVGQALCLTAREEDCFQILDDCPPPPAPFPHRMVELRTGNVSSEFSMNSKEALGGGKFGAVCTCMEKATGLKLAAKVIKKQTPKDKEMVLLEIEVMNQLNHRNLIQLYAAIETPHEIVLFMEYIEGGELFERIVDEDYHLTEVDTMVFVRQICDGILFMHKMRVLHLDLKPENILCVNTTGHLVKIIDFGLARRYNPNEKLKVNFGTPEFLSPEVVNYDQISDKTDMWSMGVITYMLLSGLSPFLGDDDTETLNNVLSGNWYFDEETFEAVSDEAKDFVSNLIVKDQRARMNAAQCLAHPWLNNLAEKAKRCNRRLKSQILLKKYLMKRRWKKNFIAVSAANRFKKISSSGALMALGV
Hepatocyte growth factor receptor (Homo sapiens), sequence (P08581 whole entry, the tested form may be a part): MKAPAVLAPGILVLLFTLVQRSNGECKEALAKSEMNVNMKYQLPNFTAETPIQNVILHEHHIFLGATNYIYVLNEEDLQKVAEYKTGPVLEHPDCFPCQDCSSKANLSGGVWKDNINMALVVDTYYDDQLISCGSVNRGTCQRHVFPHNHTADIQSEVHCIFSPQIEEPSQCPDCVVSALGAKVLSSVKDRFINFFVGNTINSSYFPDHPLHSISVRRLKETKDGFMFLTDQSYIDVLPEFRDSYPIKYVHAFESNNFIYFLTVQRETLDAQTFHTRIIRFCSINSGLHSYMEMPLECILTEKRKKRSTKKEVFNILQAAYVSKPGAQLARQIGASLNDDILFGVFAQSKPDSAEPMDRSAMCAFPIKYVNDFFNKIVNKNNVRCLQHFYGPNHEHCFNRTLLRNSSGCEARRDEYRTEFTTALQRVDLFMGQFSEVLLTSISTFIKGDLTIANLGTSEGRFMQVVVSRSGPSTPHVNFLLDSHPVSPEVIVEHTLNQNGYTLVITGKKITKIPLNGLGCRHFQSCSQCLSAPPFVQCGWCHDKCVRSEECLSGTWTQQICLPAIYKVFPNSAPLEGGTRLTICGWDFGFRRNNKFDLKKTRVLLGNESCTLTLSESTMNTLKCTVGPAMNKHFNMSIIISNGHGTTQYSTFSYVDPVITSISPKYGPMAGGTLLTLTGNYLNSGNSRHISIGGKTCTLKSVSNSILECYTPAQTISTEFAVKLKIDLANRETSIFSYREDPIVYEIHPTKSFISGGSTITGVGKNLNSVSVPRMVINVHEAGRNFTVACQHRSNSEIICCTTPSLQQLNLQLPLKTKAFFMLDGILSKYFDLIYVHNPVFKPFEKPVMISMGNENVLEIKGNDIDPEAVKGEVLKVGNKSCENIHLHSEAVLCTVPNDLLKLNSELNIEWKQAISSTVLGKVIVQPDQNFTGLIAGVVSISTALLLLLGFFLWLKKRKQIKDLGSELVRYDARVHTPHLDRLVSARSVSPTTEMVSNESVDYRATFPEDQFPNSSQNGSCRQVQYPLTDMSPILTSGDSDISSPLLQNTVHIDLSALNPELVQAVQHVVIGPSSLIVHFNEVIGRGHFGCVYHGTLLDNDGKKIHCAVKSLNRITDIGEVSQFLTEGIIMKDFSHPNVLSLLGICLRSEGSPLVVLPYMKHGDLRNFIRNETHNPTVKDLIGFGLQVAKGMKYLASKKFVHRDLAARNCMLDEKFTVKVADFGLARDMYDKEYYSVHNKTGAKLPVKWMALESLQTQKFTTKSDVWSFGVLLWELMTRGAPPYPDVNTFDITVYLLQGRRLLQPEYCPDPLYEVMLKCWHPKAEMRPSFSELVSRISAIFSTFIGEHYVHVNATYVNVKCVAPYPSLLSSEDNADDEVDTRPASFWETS

C=CC(=O)Nc1cc(Nc2cc(-c3cccc(NC(=O)c4ccc(C(C)(C)C)cc4)c3C)cn(C)c2=O)ccc1C(=O)N1CCOCC1
GI50 [1]: 4.8 µM | Activity [2]: 100% | Activity [3]: 100% | Activity [4]: 99% | Activity [5]: 89% | Activity [6]: 100% | Activity [7]: 100% | Activity [8]: 95% | Activity [9]: 82% | Activity [10]: 94% | Activity [11]: 100% | Activity [12]: 74% | Activity [13]: 100% | Activity [14]: 89% | Activity [15]: 96% | Activity [16]: 89% | Activity [17]: 100% | Activity [18]: 100% | Activity [19]: 98% | Activity [20]: 97% | Activity [21]: 96% | Activity [22]: 96% | Activity [23]: 90% | Activity [24]: 100% | Activity [25]: 93% | Activity [26]: 83%
